Patent US20220204497A1, “NOVEL COMPOUND HAVING ANTICANCER ACTIVITY, AND METHOD FOR PRODUCING SAME” (MEDICINAL BIOCONVERGENCE RESEARCH CENTER, priority 2019, published 2022)

What was measured:
A549 cells = test: Cell viability by MTT method in A549 cells; type: cell-based; set-up: concentration or dose not given beside the values; details: 72 hours treatment
H460 cells [1] = test: In vivo anti-cancer efficacy in mice transplanted with H460 cells; set-up: species or system mouse; details: 50 mg/kg intraperitoneally once every two days, 15 days
Method: FIGS. 3a to 3d are the results of observing the tumor growth while administering compound No. 63 (50 mg/kg) once every two days intraperitoneally for a total of 15 days to a mouse transplanted with H460 cells. (FIG. 3a: macroscopic observation of each mouse and tumor after the end of administration, FIG. 3b: tumor growth curve over time, FIG. 3c: the weight of each tumor obtained at the end of administration, FIG. 3d: change in body weight of animals during administration period).
Next, the anti-cancer efficacy of compound No. 63 was evaluated in a mouse model transplanted with H460 cells.
Specifically, the compound No. 63 was intraperitoneally administered to mice transplanted with H460 cells at 50 mg/kg, once every two days for a total of 15 days.

AIMP2-DX2 = target: T1, AIMP2-DX2 (Homo sapiens, UniProt Q13155); test: DX2-nanoluciferase assay (DX2 expression change) in transfected A549 cells; details: for inhibition at 40 µM: read-out: DX-Nanoluciferase activity (40 μM), 40 μM, 4 hours treatment, A549 cells transfected with nanoluciferase-DX2; for inhibition at 40 µM / DX-Nanoluciferase activity (40 μM): inhibitory effect on AIMP2-DX2 expression
T1 sequence (Q13155 1-251 isoform Q13155-2): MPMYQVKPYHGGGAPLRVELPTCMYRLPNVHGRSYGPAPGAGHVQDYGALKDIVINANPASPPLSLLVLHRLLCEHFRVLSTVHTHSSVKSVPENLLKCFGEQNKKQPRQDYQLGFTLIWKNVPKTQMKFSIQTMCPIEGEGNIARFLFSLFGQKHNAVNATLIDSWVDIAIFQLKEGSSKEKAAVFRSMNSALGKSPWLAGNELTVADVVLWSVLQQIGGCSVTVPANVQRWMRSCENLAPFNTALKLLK
Method: After cloning DX2 into a plasmid expressing nanoluciferase, the plasmid was transfected into A549 cells. Transfected cells were seeded 1×10^4 per well in a 96-well plate and stabilized for 12 hours. […] Cell viability was measured by the MTT method after 72 hours of treatment with each concentration of the compound in A549 cells.

H460 cells [2] = test: In vivo cancer growth inhibition in H460 xenograft animal model; set-up: species or system BALB/cAnCr female rats; details: 50 mg/kg intraperitoneally once every 2 days, 16 days
Method: FIG. 4 is a result of testing the cancer cell growth inhibitory effect of compound No. 55 and compound No. 89 among the compounds of the Formula 1 according to the present invention and the tumor distribution of the drug in the H460 xenograft animal model. Taxol was used as a positive control.
H460 cells (2×10^7) were subcutaneously implanted in 7-week-old BALB/cAnCr female […], and then Compound No. 55 or Compound No. 89 (50 mg/kg) and Taxol (10 mg/kg) were administered intraperitoneally once every 2 days. The drug was administered for 16 days, and the size of the tumor and the weight of the animal were measured during administration. After 16 days, the animals were sacrificed and the size and weight of the removed tumors were measured.

[3] = 4 hours treatment, A549 cells transfected with nanoluciferase-DX2

SMILES | Cell Viability (% inhibition) (A549) (A549 cells) | inhibition at 40 µM (AIMP2-DX2; A549, 4 h) [%] | further results
COc1ccc(-c2csc(NC(=O)[C@H](Cc3c[nH]c4ccccc34)NS(=O)(=O)c3ccc(C)cc3)n2)cc1 [Compound 63, (S)-3-(1H-indol-3-yl)-N-(4-(4-methoxyphenyl)thiazol-2-yl)-2-(4-methylphenylsulfonamido)propanamide] | 86.53 ± 1.35% | – | body weight of the animals during administration (H460 cells [1]): no change in the body weight; tumor growth (H460 cells [1]; H460 transplanted mice): significantly inhibited the growth of tumors
Cc1ccc(S(=O)(=O)N[C@@H](Cc2cn(S(=O)(=O)c3ccc(C)cc3)cn2)C(=O)Nc2ccc(N3CCOCC3)cc2)cc1 [Compound 74, (S)-2-(4-Methylphenylsulfonamido)-N-(4-morpholinophenyl)-3-(1-tosyl-1H-Imidazol-4-yl)propanamide] | 45.34 ± 4.64% | 56.2 ± 14.5 | –
Cc1ccc(S(=O)(=O)N[C@@H](CC(C)C)C(=O)Nc2ccc(N3CCOCC3)nc2)cc1 [Compound 12, (S)-4-Methyl-2-(4-methylphenylsulfonamido)-N-(6-morpholinopyridin-3-yl)pentanamide] | 23.26% | 43.8 ± 8.7 | –
Cc1ccc(S(=O)(=O)N[C@@H](CC(C)C)C(=O)Nc2nc(-c3ccc(C(F)(F)F)cc3)cs2)cc1 [Compound 90, (S)-4-Methyl-2-(4-methylphenylsulfonamido)-N-(4-(4-(trifluoromethyl)phenyl)thiazol-2-yl)pentanamide] | 86.36 ± 0.64% | 65.4 ± 4.13 | –
CC(C)C[C@H](NC(=O)c1ccc(C(C)(C)C)cc1)C(=O)Nc1ccc(N2CCOCC2)cc1 [Compound 59, (S)-4-tert-Butyl-N-(4-methyl-1-(4-morpholinophenylamino)-1-oxopentan-2-yl)benzamide] | 90.03 ± 0.97% | 45.7 ± 8.28 | –
Cc1ccc(C(=O)N[C@@H](Cc2c[nH]c3ccccc23)C(=O)OCc2ccccc2)cc1 [Compound 128, (S)-Benzyl 3-(1H-indol-3-yl)-2-(4-methylbenzamido)propanoate] | 63.08 ± 7.72% | 36.8 ± 8.13 | –
O=C(Nc1ccc(N2CCOCC2)cc1)[C@H](Cc1c[nH]c2ccccc12)NS(=O)(=O)c1ccc(C(F)(F)F)cc1 [Compound 68, (S)-3-(1H-indol-3-yl)-N-(4-morpholinophenyl)-2-(4-(trifluoromethyl)phenylsulfon-amido)propanamide] | 76.90 ± 0.51% | – | DX-Nanoluciferase activity (40 μM) (AIMP2-DX2; [3]): 48.06 ± 6.78
N#Cc1ccc(-c2csc(NC(=O)[C@H](Cc3c[nH]c4ccccc34)NS(=O)(=O)c3ccc(Br)cc3)n2)cc1 [Compound 192, (S)-2-(4-Bromophenylsulfonamido)-N-(4-(4-cyanophenyl)thiazol-2-yl)-3-(1H-Indol-3-yl)propanamide] | 81.69 ± 2.49% | – | inhibition at 10 µM (AIMP2-DX2; A549, 4 h, read-out: DX-Nanoluciferase activity (10 μM), 10 μM, 4 hours treatment, A549 cells transfected with nanoluciferase-DX2): 15.5 ± 3.27%
O=C(O)c1ccc(S(=O)(=O)N[C@@H](Cc2c[nH]c3ccccc23)C(=O)Nc2ccc(N3CCOCC3)cc2)cc1 [Compound 159, (S)-4-(N-(3-(1-indol-3-yl)-1-(4-morpholinophenylamino)-1-oxopropan-2-yl)sulfamoyl)benzoic acid] | 24.60 ± ? .96% | – | DX-Nanoluciferase activity (10 μM) (AIMP2-DX2; 10 μM, 4 hours treatment, A549 cells transfected with nanoluciferase-DX2): 1.75 ± 8.96 (10 μM)
CON(C)C(=O)[C@H](CC(C)C)NS(=O)(=O)c1ccc(C)cc1 [Compound 103, (S)—N-methoxy-N,4-dimethyl-2-(4-methylphenylsulfonamido)pentanamide] | −5.00 ± 6.69% | 63.7 ± 14.3 | –
O=C(Nc1nc(-c2ccccc2Cl)cs1)[C@H](Cc1c[nH]c2ccccc12)NS(=O)(=O)c1ccc(Br)cc1 [Compound 107, (S)-2-(4-Bromophenylsulfonamido)-N-(4-(2-chlorophenyl)thiazol-2-yl)-3-(1H-indol-3-yl)propanamide] | 59.19 ± 2.09% | 37 ± 12.5 | –
CC(C)C[C@H](NC(=O)c1ccc(C(C)(C)C)cc1)C(=O)OCc1ccccc1 [Compound 51, (S)-benzyl 2-(4-tert-butylbenzamido)-4-methylpentanoate] | 11.62 ± 4.29% | 63.5 ± 4.5 | –
COc1ccc(-c2csc(NC(=O)[C@H](CC(C)C)NS(=O)(=O)c3ccc(C)cc3)n2)cc1 [Compound 55, (S)—N-(4-(4-methoxyphenyl)thiazol-2-yl)-4-methyl-2-(4-methylphenylsulfonamido)pentanamide] | 89.25 ± 2.03% | 70.3 ± 3.23 | body weight of the animal during treatment (side effect) (H460 cells [2]): no change in the body weight; cancer growth inhibitory effect (H460 cells [2]; H460 xenograft): about 50%
Cc1ccc(S(=O)(=O)N[C@@H](CC(C)C)C(=O)Nc2ccc(N3CCN(C(=O)OC(C)(C)C)CC3)nc2)cc1 [Compound 16, (S)-tert-butyl 4-(5-(4-methyl-2-(4-methylphenylsulfonamido)pentanamido)pyridin-2-yl)piperazine-1-carboxylate] | 73.5% | 9.8 | –
Cc1cnc(NC(=O)[C@H](Cc2c[nH]c3ccccc23)NS(=O)(=O)c2ccc(Br)cc2)s1 [Compound 110, (S)-2-(4-Bromophenylsulfonamido)-3-(1H-indol-3-yl)-N-(5-methylthiazol-2-yl)propanamide] | 8.95 ± 3.66% | 46.7 ± 7.18 | –
O=C(NCCCc1ccccc1)[C@H](Cc1c[nH]c2ccccc12)NS(=O)(=O)c1ccc(Br)cc1 [Compound 200, (S)-2-(4-Bromophenylsulfonamido)-3-(1H-indol-3-yl)-N-(3-phenylpropyl)propanamide] | 79.27 ± 0.9% | 46.4 ± 4.51 | –
CC(C)C[C@H](NC(=O)CCS(=O)(=O)c1ccccc1)C(=O)OCc1ccccc1 [Compound 54, (S)-benzyl 4-methyl-2-(3-(phenylsulfonyl)propanamido)pentanoate] | 84.05 ± 2.61% | – | DX-Nanoluciferase activity (40 μM) (AIMP2-DX2; [3]): 33.7 ± 4.3
